According to patent publication US4994582A, “Novel antibiotic NK130119” (Nippon Kayaku Kabushiki Kaisha, priority 1989, dated 1991):
Values after ≈ are worked out from the molar mass of the structure shown.

Assays:
Altenaria kikuchiana = experiment: antifungal spectrum on Czapek Dox solution agar; format: cell-based; conditions: read-out: Minimum inhibitory concentration
Excerpt: (§1) the antifungal spectrum of the compound of the present invention was examined.

Aspergillus niger = experiment: antifungal spectrum on Czapek Dox solution agar; format: cell-based; conditions: read-out: Minimum inhibitory concentration
Excerpt: as §1

Aspergillus oryzae = experiment: antifungal spectrum on Czapek Dox solution agar; format: cell-based; conditions: read-out: Minimum inhibitory concentration
Excerpt: as §1

Candida albicans = experiment: antifungal spectrum on Czapek Dox solution agar; format: cell-based; conditions: read-out: Minimum inhibitory concentration
Excerpt: as §1

Fusarium roseum f. sp. = experiment: antifungal spectrum on Czapek Dox solution agar; format: cell-based; conditions: Fusarium sambucinum, read-out: Minimum inhibitory concentration
Excerpt: as §1

Mucor javanicus = experiment: antifungal spectrum on Czapek Dox solution agar; format: cell-based; conditions: read-out: Minimum inhibitory concentration
Excerpt: as §1

Mycosphaerella melonis = experiment: antifungal spectrum on Czapek Dox solution agar; format: cell-based; conditions: read-out: Minimum inhibitory concentration
Excerpt: as §1

Penicillium chrysogenum = experiment: antifungal spectrum on Czapek Dox solution agar; format: cell-based; conditions: read-out: Minimum inhibitory concentration
Excerpt: as §1

Rhizopus hangchao = experiment: antifungal spectrum on Czapek Dox solution agar; format: cell-based; conditions: read-out: Minimum inhibitory concentration
Excerpt: as §1

Saccharomyces cerevisiae = experiment: antifungal spectrum on Czapek Dox solution agar; format: cell-based; conditions: read-out: Minimum inhibitory concentration
Excerpt: as §1

[1] = system: Sporobolomyces salmonicolor; experiment: antifungal spectrum on Czapek Dox solution agar; format: cell-based; conditions: read-out: Minimum inhibitory concentration
Excerpt: as §1

[2] = system: mouse colonic cancer cells (Colon 26); experiment: growth-inhibitory effect on mouse colonic cancer cells, dye exclusion method; format: cell-based
Protocol: (§2) The growth-inhibitory effects of the compound of the present invention on mouse colonic cancer cells (Colon 26) and human colonic cancer cells (SW1116) were examined. A 96-well plate was inoculated with mouse colonic cancer cells at a ratio of 1.5×10^3 cells per well, while another 96-well plate was inoculated with human colonic cancer cells at a ratio of 3.0×10^3 per well. These cells were incubated in an incubator at 37° C. under 5% CO2 for 24 hours. Then the compound of the present invention was added thereto at various concentrations. Cells in each well were counted by the dye exclusion method 65 hours and 96 hours after the addition to thereby evaluate the growth-inhibitory effect of the test compound on the mouse colonic cancer cells and that on the human colonic cancer cells.

[3] = system: human colonic cancer cells (SW1116); experiment: growth-inhibitory effect on human colonic cancer cells, dye exclusion method; format: cell-based; conditions: SW 1116
Protocol: as §2

[4] = system: human pulmonary cancer cells (PC-3); experiment: growth-inhibitory effect on human pulmonary cancer cells, dye exclusion method; format: cell-based; conditions: 72 h, three days
Protocol: the growth-inhibitory effects of the compound of the present invention on mouse pulmonary cancer cells (LL) and human plumonary cancer cells (PC-3) were examined.
A 96-well plate was inoculated with mouse polmonary cancer cells at a ratio of 8.0×10^2 cells per well, while another 96-well plate was inoculated with human pulmonary cancer cells at a ratio of 2.5×10^3 per well. These cells were incubated in an incubator at 37° C. under 5% CO2 for 24 hours. Then the compound of the present invention was added thereto at various concentrations. Cells in each well were counted by the dye exclusion method three days after the addition to thereby evaluate the growth-inhibitory effect of the test compound on the mouse pulmonary cancer cells (LL) and that on the human pulmonary cancer cells (PC-3).

[5] = system: mouse melanoma cells (B16); experiment: growth-inhibitory effect on mouse melanoma cells, dye exclusion method; format: cell-based; conditions: 72 hours
Protocol: The growth-inhibitory effects of the compound of the present invention on mouse melanoma cells (B16) and human melanoma cells (G361) were examined. A 96-well plate was inoculated with mouse melanoma cells at a ratio of 1.5×10^3 cells per well, while another 96-well plate was inoculated with human melanoma cells at a ratio of 1.0×10^3 per well. These cells were incubated in an incubator at 37° C. under 5% CO2. Then the compound of the present invention was added thereto at various concentrations. Cells in each well were counted by the dye exclusion method 72 hours after the addition to thereby evaluate the growth-inhibitory effect of the test compound on the mouse melanoma cells and that on the human melanoma cells at various concentrations.

[6] = system: bovine adrenal capillary endothelial cells; experiment: growth-inhibitory effect on endothelial cells, Coulter counter; format: cell-based; conditions: Bos taurus, Endothelial cell, 72 h, three days
Protocol: The growth-inhibitory effect of the compound of the present invention on endothelial cells was examined. A 96-well plate was inoculated with bovine adrenal capillary endothelial cells at a ratio of 1×10^4 cells per well. One day after the inoculation, the compound of the present invention was added thereto at various concentrations. Cells in each well were counted with a Coulter counter three days after the addition to thereby evaluate the growth-inhibitory effect of the test compound on the capillary endothelial cells. […] Thus the IC50 of the compound of the present invention on the endothelial cells was 0.0003 μg/ml, showing a strong growth-inhibitory effect.

solubility = format: physicochemical

For `CCC1/C=C/C=C/CC(C)C(O)C(C)(O)C(=O)C(C)C(O)C(C)C(=O)C(C)C(O)C(C)/C=C/C(=O)OC2C(C)C(CC1)OC1(CCC(C)C(CC(C)O)O1)C2CC` (stereo not shown) [NK130119], the MIC (Altenaria kikuchiana) was 0.78 µg/mL (≈ 0.969 µM), the MIC (Aspergillus niger) was 1.56 µg/mL (≈ 1.94 µM) and the MIC (Aspergillus oryzae) was 1.56 µg/mL (≈ 1.94 µM). The MIC (Candida albicans) was greater than 100 µg/mL, the MIC (Fusarium roseum f. sp.) was 0.39 µg/mL (≈ 0.484 µM) and the MIC (Mucor javanicus) was greater than 100 µg/mL. For the same molecule, the MIC (Mycosphaerella melonis) was 1.56 µg/mL (≈ 1.94 µM), the MIC (Penicillium chrysogenum) was 0.78 µg/mL (≈ 0.969 µM) and the MIC (Rhizopus hangchao) was greater than 100 µg/mL. The MIC (Saccharomyces cerevisiae) was greater than 100 µg/mL, the MIC [1] was greater than 100 µg/mL and the inhibition at 0.0006 µg/mL ([2]; Mus musculus, Colon 26, 0.0006 μg/ml, read-out: Growth-inhibitory ratio) was 2.54%. For the same molecule, the inhibition at 0.0024 µg/mL ([2]; Mus musculus, Colon 26, 0.0024 μg/ml, read-out: Growth-inhibitory ratio) was 4.17%, the inhibition at 0.0098 µg/mL ([2]; Mus musculus, Colon 26, 0.0098 μg/ml, read-out: Growth-inhibitory ratio) was 41% and the inhibition at 0.039 µg/mL ([2]; Mus musculus, Colon 26, 0.039 μg/ml, read-out: Growth-inhibitory ratio) was 87.6%. The inhibition at 0.156 µg/mL ([2]; Mus musculus, Colon 26, 0.156 μg/ml, read-out: Growth-inhibitory ratio) was 90.3%, the inhibition at 0.625 µg/mL ([2]; Mus musculus, Colon 26, 0.625 μg/ml, read-out: Growth-inhibitory ratio) was 88.9% and the inhibition at 2.5 µg/mL ([2]; Mus musculus, Colon 26, 2.5 μg/ml, read-out: Growth-inhibitory ratio) was 96%. It also gave an inhibition at 10 µg/mL ([2]; Mus musculus, Colon 26, 10 μg/ml, read-out: Growth-inhibitory ratio) of 101%, an IC50 ([2]; mouse colonic cancer cells (Colon 26), cells counted 65 hours and 96 hours after addition) of less than 0.025 µg/mL and an inhibition at 0.0006 µg/mL ([3]; Homo sapiens, SW1116, 0.0006 μg/ml, read-out: Growth-inhibitory ratio) of 2.29%. It also gave an inhibition at 0.0024 µg/mL ([3]; Homo sapiens, SW1116, 0.0024 μg/ml, read-out: Growth-inhibitory ratio) of -1.4%, an inhibition at 0.0098 µg/mL ([3]; Homo sapiens, SW1116, 0.0098 μg/ml, read-out: Growth-inhibitory ratio) of -0.24% and an inhibition at 0.039 µg/mL ([3]; Homo sapiens, SW1116, 0.039 μg/ml, read-out: Growth-inhibitory ratio) of 50.7%. The inhibition at 0.156 µg/mL ([3]; Homo sapiens, SW1116, 0.156 μg/ml, read-out: Growth-inhibitory ratio) was 50.3%, the inhibition at 0.625 µg/mL ([3]; Homo sapiens, SW1116, 0.625 μg/ml, read-out: Growth-inhibitory ratio) was 47.8% and the inhibition at 2.5 µg/mL ([3]; Homo sapiens, SW1116, 2.5 μg/ml, read-out: Growth-inhibitory ratio) was 47.2%. It also gave an inhibition at 10 µg/mL ([3]; Homo sapiens, SW1116, 10 μg/ml, read-out: Growth-inhibitory ratio) of 80.2%, an IC50 ([3]; human colonic cancer cells (SW1116), cells counted 65 hours and 96 hours after addition) of 2.8 µg/mL (≈ 3.48 µM) and an IC50 ([4]; human pulmonary cancer cells (PC-3)) of 2 µg/mL (≈ 2.48 µM). The inhibition at 0.0006 µg/mL ([4]; Homo sapiens, PC-3, 0.0006 μg/ml, read-out: Growth-inhibitory ratio) was 0.8%, the inhibition at 0.0024 µg/mL ([4]; Homo sapiens, PC-3, 0.0024 μg/ml, read-out: Growth-inhibitory ratio) was 1.4% and the inhibition at 0.0098 µg/mL ([4]; Homo sapiens, PC-3, 0.0098 μg/ml, read-out: Growth-inhibitory ratio) was 6.2%. For the same molecule, the inhibition at 0.039 µg/mL ([4]; Homo sapiens, PC-3, 0.039 μg/ml, read-out: Growth-inhibitory ratio) was 22.6%, the inhibition at 0.156 µg/mL ([4]; Homo sapiens, PC-3, 0.156 μg/ml, read-out: Growth-inhibitory ratio) was 21.3% and the inhibition at 0.625 µg/mL ([4]; Homo sapiens, PC-3, 0.625 μg/ml, read-out: Growth-inhibitory ratio) was 28%. It also gave an inhibition at 2.5 µg/mL ([4]; Homo sapiens, PC-3, 2.5 μg/ml, read-out: Growth-inhibitory ratio) of 54.3%, an inhibition at 10 µg/mL ([4]; Homo sapiens, PC-3, 10 μg/ml, read-out: Growth-inhibitory ratio) of 91.5% and an inhibition at 0.0006 µg/mL ([5]; Mus musculus, B16, 0.0006 μg/ml, read-out: Growth-inhibitory ratio) of 0.63%. For the same molecule, the inhibition at 0.0024 µg/mL ([5]; Mus musculus, B16, 0.0024 μg/ml, read-out: Growth-inhibitory ratio) was 0.63%, the inhibition at 0.0097 µg/mL ([5]; Mus musculus, B16, 0.0097 μg/ml, read-out: Growth-inhibitory ratio) was 1.32% and the inhibition at 0.039 µg/mL ([5]; Mus musculus, B16, 0.039 μg/ml, read-out: Growth-inhibitory ratio) was 34.2%. For the same molecule, the inhibition at 0.156 µg/mL ([5]; Mus musculus, B16, 0.156 μg/ml, read-out: Growth-inhibitory ratio) was 45.9%, the inhibition at 0.625 µg/mL ([5]; Mus musculus, B16, 0.625 μg/ml, read-out: Growth-inhibitory ratio) was 49.7% and the inhibition at 2.5 µg/mL ([5]; Mus musculus, B16, 2.5 μg/ml, read-out: Growth-inhibitory ratio) was 79%. For the same molecule, the inhibition at 10 µg/mL ([5]; Mus musculus, B16, 10 μg/ml, read-out: Growth-inhibitory ratio) was 101%, the IC50 ([5]; mouse melanoma cells (B16)) was 0.64 µg/mL (≈ 0.795 µM) and the IC50 ([6]; bovine adrenal capillary endothelial cells) was 0.0003 µg/mL (≈ 0.000373 µM). It also gave an inhibition at 0.000128 µg/mL ([6]; endothelial cells, 0.000128 μg/ml, read-out: Growth-inhibitory ratio) of 35.2%, an inhibition at 0.00064 µg/mL ([6]; endothelial cells, 0.00064 μg/ml, read-out: Growth-inhibitory ratio) of 62.9% and an inhibition at 0.0032 µg/mL ([6]; endothelial cells, 0.0032 μg/ml, read-out: Growth-inhibitory ratio) of 77.9%. For the same molecule, the inhibition at 0.016 µg/mL ([6]; endothelial cells, 0.016 μg/ml, read-out: Growth-inhibitory ratio) was 90.1%, the solubility in hexane (solubility; hexane) was “hardly soluble” and the “solubility in organic solvents” value (solubility; methanol, acetone, ethyl acetate and ethanol) was “soluble”. For the same molecule, the solubility in water (solubility; water) was “hardly soluble”.
